Experimental data: patent US20080312287A1, “Compound and Methods For the Treatment of Cancer and Malaria” (University of Washington, priority 2005, published 2008)
Like-named read-outs stand apart in the source and are kept apart here. Marks after values point to notes of the source that are not given here.

Experiments:
[1] = test system: P. falciparum 3D7; assay: P. falciparum ED50 determination, [3H]-hypoxanthine incorporation, strain 3D7; type: cell-based, Plasmodium falciparum; conditions: concentration decreasing hypoxanthine incorporation into parasites twofold, read-out: ED50 3D7
Description: (§1) Plasmodium strains. The P. falciparum strains used in this study were 3D7 (Netherlands, sensitive) provided by Dr. Pradipsinh Rathod from the University of Washington and K1 (Thailand, ChQ-R, Pyr-R) obtained from the MR4Unit of the American Type Culture Collection (ATCC, Manassas, Va.).
(§2) P. falciparum culture. Strains of P. falciparum were sustained in vitro based on experimental techniques as described by Trager and Jensen.^26 Cultures were maintained in RPMI-1640 (Sigma, St. Louis, […].) with 2 mM L-glutamine, 25 mM HEPES, 33 mM NaHCO3, 20 μg/ml gentamicin sulfate and 20% (v/v) heat-inactivated human plasma type A+ (R^P-20P). Type A+ erythrocytes were obtained from lab donors, washed three times with RPMI, re-suspended in 50% RPMI, and stored at 4° C. Parasites were grown in 10 mL of a 2% hematocrit/RP-20P (v/v) in 50-mL flasks under a 5% CO2, 5% O2, and 90% N2 atmosphere.
(§3) P. falciparum ED50 determination. One […]L of PFTI dissolved in DMSO was added to each well of a 96-well plate followed by the addition of 200 μL of P. falciparum culture at parasitemia and hematocrit of 0.5%. Plates were flushed with 5% CO2, 5% O2, and 90% N2 then incubated at 37° C. for 48 hr. [8-^3H]-hypoxanthine (0.3 μCi, 20 Ci/mmol, American Radiolabeled Chemicals) in 30 μL RP-20P was added to cultures and incubated for an additional 24 hours. Cells were harvested onto filter mats by a Multiharvester (Skatron, Sunnyvale, Calif.) and the radioactivity incorporated into the parasites was counted on a β-scintillation counter. The background level detected with uninfected erythrocytes was subtracted from the data. The ^3H-incorporation into infected RBCs with 1 μL DMSO vehicle alone represents 100% malaria growth. ED50 values were determined by linear regression analysis of the plots of ^3H-hypoxanthine incorporation versus concentration of compound.

[2] = test system: P. falciparum K1; assay: P. falciparum ED50 determination, [3H]-hypoxanthine incorporation, strain K1; type: cell-based, Plasmodium falciparum; conditions: concentration decreasing hypoxanthine incorporation into parasites twofold, read-out: ED50 K1
Description: as §1, §2, §3

[3] = target: T1, PfPFT (Plasmodium falciparum, UniProt Q8I503+Q8IHP6); assay: PfPFT inhibition, scintillation proximity assay with partially purified PfPFT; type: biochemical; conditions: for IC50: concentration decreasing transferase activity twofold; for inhibition at 0.005 µM: read-out: % Inhibition of PfPFT at 5 nM, inhibitor at 5 nM; for inhibition at 0.05 µM: read-out: % Inhibition of PfPFT at 50 nM, inhibitor at 50 nM; for Selectivity: ratio of rat to Plasmodium PFT activity
T1 sequence (Q8I503 1-521): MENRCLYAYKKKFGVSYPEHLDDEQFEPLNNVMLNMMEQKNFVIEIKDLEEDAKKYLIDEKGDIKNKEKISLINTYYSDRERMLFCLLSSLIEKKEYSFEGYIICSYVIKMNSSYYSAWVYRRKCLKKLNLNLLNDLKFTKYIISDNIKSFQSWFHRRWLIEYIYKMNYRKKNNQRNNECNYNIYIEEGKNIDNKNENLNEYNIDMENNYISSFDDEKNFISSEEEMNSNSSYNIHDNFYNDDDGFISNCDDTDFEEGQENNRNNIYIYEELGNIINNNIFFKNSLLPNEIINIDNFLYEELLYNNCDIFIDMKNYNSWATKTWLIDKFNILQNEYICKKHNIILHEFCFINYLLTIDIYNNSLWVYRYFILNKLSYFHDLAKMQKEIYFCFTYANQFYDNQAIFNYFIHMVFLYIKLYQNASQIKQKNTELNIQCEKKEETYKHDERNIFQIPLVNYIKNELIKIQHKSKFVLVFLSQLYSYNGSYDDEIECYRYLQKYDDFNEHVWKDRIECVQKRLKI
T1 sequence (Q8IHP6 1-923): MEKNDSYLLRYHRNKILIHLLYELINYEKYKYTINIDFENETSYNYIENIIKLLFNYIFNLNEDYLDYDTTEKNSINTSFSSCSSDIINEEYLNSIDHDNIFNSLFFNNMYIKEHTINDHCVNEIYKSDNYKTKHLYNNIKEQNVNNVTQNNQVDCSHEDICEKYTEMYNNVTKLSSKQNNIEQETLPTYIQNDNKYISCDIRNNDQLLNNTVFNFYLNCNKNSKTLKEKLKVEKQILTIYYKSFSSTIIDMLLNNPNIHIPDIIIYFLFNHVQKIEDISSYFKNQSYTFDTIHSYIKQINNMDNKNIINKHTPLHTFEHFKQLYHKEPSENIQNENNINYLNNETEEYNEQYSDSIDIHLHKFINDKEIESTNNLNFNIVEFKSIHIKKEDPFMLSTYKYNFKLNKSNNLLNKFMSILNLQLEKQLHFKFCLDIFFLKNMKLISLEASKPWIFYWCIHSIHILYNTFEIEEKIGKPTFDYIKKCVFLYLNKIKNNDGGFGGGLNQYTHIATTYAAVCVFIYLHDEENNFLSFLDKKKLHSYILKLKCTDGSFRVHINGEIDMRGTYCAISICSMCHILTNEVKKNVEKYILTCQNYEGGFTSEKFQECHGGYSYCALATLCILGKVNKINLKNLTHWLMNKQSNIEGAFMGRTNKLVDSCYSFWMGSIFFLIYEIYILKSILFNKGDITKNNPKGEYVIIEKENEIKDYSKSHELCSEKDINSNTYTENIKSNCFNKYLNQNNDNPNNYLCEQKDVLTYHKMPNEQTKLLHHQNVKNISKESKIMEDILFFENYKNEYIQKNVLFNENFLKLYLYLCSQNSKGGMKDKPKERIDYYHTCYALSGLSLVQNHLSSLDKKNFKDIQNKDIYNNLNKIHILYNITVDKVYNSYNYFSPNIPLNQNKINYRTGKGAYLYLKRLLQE

[4] = Oral availability in mice, inhibitor concentration in plasma; type: in vivo
[5] = target: Rat FTase (Rattus norvegicus, UniProt Q02293+Q04631); assay: Rat farnesyltransferase IC50 determination; type: biochemical; conditions: concentration decreasing transferase activity twofold
[6] = Oral availability in rats, inhibitor concentration in plasma; type: in vivo; conditions: rat
[7] = Liver microsome metabolism (mouse); conditions: female
Description: (§4) Microsome metabolism. Liver microsome metabolism assays were performed with female pooled microsomes from BD Biosciences (20 mg/mL). Reaction wells containing: phosphate buffer (232 μL, 0.6 M), MgCl2 (12.0 μL, 0.1 M), EDTA (0.8 μL, 0.5 M), 10x NADPH regenerating system (40.0 μL), Glucoide-6-phosphate deghydrogenase (0.8 μL, 500 U/mL), milliq water (267.8 μL), and liver microsomes (10.0 μL, 20 mg/mL) were heated at 37° C. for 10 mins. To each reaction well was added inhibitor (200 μM, 2.0 μL) in DMSO. Reaction vessels were quenched with acetonitrile (75 μL) and internal standard at designated time points, and the sample immediately frozen (−20° C.). Metabolites and unreacted inhibitor were quantified by mass spectral analysis.

[8] = Liver microsome metabolism (rat); conditions: female, microsomes
Description: as §4

[9] = Plasmodium falciparum, 3D7, strain 3D7
[10] = Plasmodium falciparum, K1, strain K1

Row | SMILES | EC50 [1, 9] | EC50 [2, 10] | IC50 [3] | inhibition at 0.005 µM [3] | inhibition at 0.05 µM [3] | Tmax ([4]; mouse, in vivo, po) | IC50 [5] | Oral Availability AUC (^d, rats) ([6]; in vivo, po) | Cmax ([4]; mouse, in vivo, po, 1 mg) | Selectivity [3] | half-life at 0.71 µM ([7]; liver microsomes, Microsome t1/2, Mouse, mouse liver microsomes) | half-life ([6]; plasma, 12.5 mg, oral gavage, rats, elimination half life, read-out: Oral Availability t1/2 (rats)) | Tmax ([6]; plasma, oral administration to rats 12.5 mg) | Cmax ([6]; plasma, oral gavage, rats 12.5 mg in 90% saline, 3% ethanol, 7% tween) | EC50 ([2]; strain K1) | half-life at 0.71 µM ([7]; microsomes) | half-life at 0.71 µM [8] | Oral Availability in Mice AUC ([4]; mouse, in vivo, po, 1 mg) | Oral Availability in Mice t1/2 ([4]; oral gavage, mice 1 mg, elimination half life) | EC50 ([1]; strain 3D7)
1 | Cn1cnc(S(=O)(=O)N(CCN(Cc2cncn2C)c2ccc(C#N)cc2)CC2CCN(C(=O)OC(C)(C)C)CC2)c1 [Compound 8v, 4-{[{2-[(4-Cyano-phenyl)-(3-methyl-3H-imidazol-4-ylmethyl)-amino]-ethyl}-(1-methyl-1H-imidazole-4-sulfonyl)-amino]-methyl}-piperidine-1-carboxylic acid tert-butyl ester] | 88 nM | 54 nM | 1.2 nM | 81% | 96% | ≤ 40 min | – | – | – | – | – | – | – | – | – | – | – | – | – | –
2 | Cn1cncc1CN(CCN(Cc1ccccc1)S(=O)(=O)c1ccccn1)c1ccc(C#N)cc1 [Compound 8g, Pyridine-2-sulfonic acid benzyl-{2-[(4-cyano-phenyl)-(3-methyl-3H-imidazol-4-ylmethyl)-amino]-ethyl}-amide] | 570 nM | 2300 nM | 2.8 nM | 64% | 95% | 30 min | – | – | – | – | – | – | – | – | – | – | – | – | – | –
3 | Cc1ccccc1CN(CCN(Cc1cncn1C)c1ccc(C#N)cc1)S(=O)(=O)c1cn(C)cn1 [Compound 8x, 1-Methyl-1H-imidazole-4-sulfonic acid {2-[(4-cyano-phenyl)-(3-methyl-3H-imidazol-4-ylmethyl)-amino]-ethyl}-(2-methyl-benzyl)-amide] | 93 nM | 150 nM | – | 95% | 99% | 40 min | 15.5 nM | 103^d μM · min | 1050 nM | – | – | – | – | – | – | – | – | – | – | –
4 | Cn1cncc1CN(CCN(Cc1ccccc1)S(=O)(=O)c1ccccc1)c1ccc(C#N)cc1 [Compound 8e, N-Benzyl-N-{2-[(4-cyano-phenyl)-(3-methyl-3H-imidazol-4-ylmethyl)-amino]-ethyl}-benzenesulfonamide] | 2500 nM | 2250 nM | – | 18% | 69% | – | 13 nM | – | – | 1.5 | – | – | – | – | – | – | – | – | – | –
5 | Cn1cnc(S(=O)(=O)N(CCN(Cc2cncn2C)c2ccc(C#N)cc2)Cc2ccc(-c3ccccc3)cc2)c1 [Compound 8ag, 1-Methyl-1H-imidazole-4-sulfonic acid biphenyl-4-ylmethyl-{2-[(4-cyano-phenyl)-(3-methyl-3H-imidazol-4-ylmethyl)-amino]-ethyl}-amide] | 700 nM | 2500 nM | – | 10% | 19% | – | 880 nM | – | – | 3.7 | < 4 min | – | – | – | – | – | – | – | – | –
6 | CN(C)c1cccc2c(S(=O)(=O)N(CCN(Cc3cncn3C)c3ccc(C#N)cc3)Cc3ccccc3)cccc12 [Compound 8i, 5-Dimethylamino-naphthalene-1-sulfonic acid benzyl-{2-[(4-cyano-phenyl)-(3-methyl-3H-imidazol-4-ylmethyl)-amino]-ethyl}-amide] | 300 nM | 388 nM | – | 6% | 29% | – | 180 nM | – | – | 3.3 | – | – | – | – | – | – | – | – | – | –
7 | Cn1cnc(S(=O)(=O)N(CCN(Cc2cncn2C)c2ccc(C#N)cc2)Cc2ccccc2)c1 [Compound 8d, 1-Methyl-1H-imidazole-4-sulfonic acid benzyl-{2-[(4-cyano-phenyl)-(3-methyl-3H-imidazol-4-ylmethyl)-amino]-ethyl}-amide] | 349 nM | 375 nM | – | 86% | 98% | – | 25 nM | – | – | – | – | 96 min | 30 min | 740 nM | 367 nM | 9 min | 18 min | 112.0 µM·min | 95.9 min | –
8 | Cn1cnc(S(=O)(=O)N(CCN(Cc2cncn2C)c2ccc(C#N)cc2)Cc2ccc(C#N)cc2)c1 [Compound 8ae, 1-Methyl-1H-imidazole-4-sulfonic acid (4-cyano-benzyl)-{2-[(4-cyano-phenyl)-(3-methyl-3H-imidazol-4-ylmethyl)-amino]-ethyl}-amide] | 1600 nM | 4100 nM | – | 24% | 48% | – | 350 nM | – | – | 3.7 | – | – | – | – | – | – | – | – | – | –
9 | Cn1cnc(S(=O)(=O)N(CCN(Cc2cncn2C)c2ccc(C#N)cc2)Cc2ccccn2)c1 [Compound 8aa, 1-Methyl-1H-imidazole-4-sulfonic acid {2-[(4-cyano-phenyl)-(3-methyl-3H-imidazol-4-ylmethyl)-amino]-ethyl}-pyridin-2-ylmethyl-amide amide] | 750 nM | 1000 nM | – | 64% | 93% | – | 43 nM | – | – | – | – | – | – | – | – | – | – | – | – | –
10 | Cc1ccccc1CN(CCN(Cc1cncn1C)c1ccc(-c2ccccc2)cc1)S(=O)(=O)c1cn(C)cn1 [Compound 8c, 1-Methyl-1H-imidazole-4-sulfonic acid {2-[biphenyl-4-yl-(3-methyl-3H-imidazol-4-ylmethyl)-amino]-ethyl}-(2-methyl-benzyl)-amide] | 2500 nM | 2600 nM | 8 nM | 49% | 85% | – | > 1000 nM | – | – | – | – | – | – | – | 2500 nM | – | – | – | – | 2600 nM
